In general, pIC50 refers to the negative decadic logarithm of the IC50, by convention in mol/L.

pIC50: −log10 of the molar value.

The target of this assay is human HPK1 (MAP4K1) (Homo sapiens (Human), UniProt Q92918). The assay is described as follows: HPK1 IC50 Assay. Format: biochemical. As to conditions: recombinant HPK1 kinase domain 0.15 nM, synthetic peptide substrate STK S1, 3 hours at 25° C., time-resolved fluorescence energy transfer; geometric mean of multiple experiments. The method, then:
The enzymatic activity of human HPK1 (MAP4K1) was monitored in a biochemical assay in the presence or absence of compounds and using a synthetic peptide substrate. An increase in phosphorylation of the peptide by HPK1 was indicative of its kinase activity.
Recombinant HPK1 kinase domain produced via baculovirus infection of insect cells was obtained from Proteros (Proteros Biostructures #PR-0322) and was pre-activated in the presence of 2 mM ATP (Sigma-Aldrich, cat #GE27-2056-01) and 2 mM magnesium chloride for 16 hours at 4° C. The protein reaction mixture was then loaded to a desalting column (Thermo Fisher Scientific, Cat #89889) to remove excess ATP. HPK1 was eluted with buffer containing 20 mM Tris (2-Amino-2-(hydroxymethyl)propane-1,3-diol) pH 8.0, 150 mM NaCl, 2 mM dithiothreitol and 5% glycerol, and was frozen at −80° C. for later use. HPK1 dual phosphorylation was confirmed by mass spectrometry.
Ten nanoliters of test compounds dissolved in DMSO at various concentrations were dispensed into a 384-well ProxiPlate (PerkinElmer #6008289). Five microliters of a solution of recombinant HPK1 diluted in HPK1 kinase assay buffer (50 mM BES [N,N-Bis(2-hydroxyethyl)-2-aminoethanesulfonic acid], pH 7.0; 10 mM magnesium chloride; 0.01% Triton X-100; 1 mM dithiothreitol; 0.01% bovine serum albumin; 0.1 mM sodium orthovanadate) was added to the compound-containing plate and was incubated for 15 minutes at 25° C. Five microliters of a mixture of ATP (Sigma-Aldrich #A6559) and peptide substrate STK Si (Cisbio #61ST1BLC) diluted in HPK1 kinase assay buffer was then added to start the reaction. Final concentrations were 0.15 nM for HPK1, […], and 1 […]. The reaction mixture was incubated at 25° C. for 3 hours and was stopped with the addition of 10 μl of an EDTA (Ethylenediaminetetraacetic acid)-containing detection buffer (Cisbio #62SDBRDF) supplemented with Europium cryptate-labeled anti-phospho-serine/threonine antibodies (Cisbio #62ST1PEJ) and XL665-labeled streptavidin (Cisbio #610SAXLG). The mixture was incubated for 16 hours at room temperature and peptide phosphorylation was measured by time-resolved fluorescence energy transfer (665 nm/620 nm) on an Envision plate reader (PerkinElmer).
Data in Table 1 were normalized based on positive (staurosporine) and negative (DMSO) controls. Least squares curve fittings were performed using a four-parameter variable slope nonlinear regression model. IC50 is defined as the concentration of compound required to inhibit 50% of maximum phosphorylation. IC50 values from multiple experiments were averaged by geometric mean and the standard deviation was calculated.

human HPK1 (MAP4K1), sequence (Q92918 17-274): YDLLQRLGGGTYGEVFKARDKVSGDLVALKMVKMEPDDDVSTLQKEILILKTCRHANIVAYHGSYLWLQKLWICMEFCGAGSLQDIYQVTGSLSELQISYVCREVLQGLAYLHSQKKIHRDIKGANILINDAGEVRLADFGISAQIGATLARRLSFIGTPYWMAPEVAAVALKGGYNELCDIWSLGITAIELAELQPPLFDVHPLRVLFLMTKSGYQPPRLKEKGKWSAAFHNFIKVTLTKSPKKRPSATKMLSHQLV

`Cc1c(-c2ccc3c(c2)C(=Cc2cccs2)C(=O)N3)cnc2c1NCCO2` (racemic) [Compound C19, (E and Z)-5-(8-methyl-2,3-dihydro-1H-pyrido[2,3-b][1,4]oxazin-7-yl)-3-(thiophen-2-ylmethylene)indolin-2-one]: the pIC50 is 8.73.

Take `CCN(CC)CCNC(=O)c1c(C)[nH]c(/C=C2\C(=O)Nc3cc(F)c(-c4cnc5c(c4C)NCCO5)cc32)c1C` [Compound C1, (Z)—N-(2-(diethylamino)ethyl)-5-((6-fluoro-5-(8-methyl-2,3-dihydro-1H-pyrido[2,3-b][1,4]oxazin-7-yl)-2-oxoindolin-3-ylidene)methyl)-2,4-dimethyl-1H-pyrrole-3-carboxamide]: the pIC50 was 10.30.

Regarding `Cc1ncc(/C=C2\C(=O)Nc3ccc(-c4ccc5c(c4C)NCCO5)cc32)[nH]1` [Compound C2, (Z)-3-((2-methyl-1H-imidazol-5-yl)methylene)-5-(5-methyl-3,4-dihydro-2H-benzo[b][1,4]oxazin-6-yl)indolin-2-one], the pIC50 is 8.71.

For the molecule `Cc1ncc(/C=C2\C(=O)Nc3cc(C)c(-c4cnc5c(c4C)NCCO5)cc32)[nH]1` [Compound C3, (Z)-6-methyl-3-((2-methyl-1H-imidazol-5-yl)methylene)-5-(8-methyl-2,3-dihydro-1H-pyrido[2,3-b][1,4]oxazin-7-yl)indolin-2-one], the pIC50 is 9.72.

As for `Cc1ncc(/C=C2\C(=O)Nc3c(F)cc(-c4cnc5c(c4C)NCCO5)c(C)c32)[nH]1` [Compound C4, (Z)-7-fluoro-4-methyl-3-((2-methyl-1H-imidazol-5-yl)methylene)-5-(8-methyl-2,3-dihydro-1H-pyrido[2,3-b][1,4]oxazin-7-yl)indolin-2-one], the pIC50 is 9.82.

Turning to `Cc1ncc(/C=C2\C(=O)Nc3c(F)cc(-c4cnc5c(c4)NCCO5)c(C)c32)[nH]1` [Compound C5, (Z)-5-(2,3-dihydro-H-pyrido[2,3-b][1,4]oxazin-7-yl)-7-fluoro-4-methyl-3-((2-methyl-TH-imidazol-5-yl)methylene)indolin-2-one], the pIC50 was 8.13.

Consider `CCc1nc(C)c(/C=C2\C(=O)Nc3ccc(-c4cnc5c(c4C)NCCO5)cc32)[nH]1` [Compound C6, (Z)-3-((2-ethyl-4-methyl-1H-imidazol-5-yl)methylene)-5-(8-methyl-2,3-dihydro-1H-pyrido[2,3-b][1,4]oxazin-7-yl)indolin-2-one], for which the pIC50 was 9.92.

Consider `Cc1ncc(/C=C2\C(=O)Nc3cc(Cl)c(-c4cnc5c(c4C)NCCO5)cc32)[nH]1` [Compound C7, (Z)-6-chloro-3-((2-methyl-1H-imidazol-5-yl)methylene)-5-(8-methyl-2,3-dihydro-1H-pyrido[2,3-b][1,4]oxazin-7-yl)indolin-2-one], for which the pIC50 was 9.54.

Consider `Cc1ncc(/C=C2\C(=O)Nc3cc(F)c(-c4cnc5c(c4C)NCCO5)cc32)[nH]1` [Compound C8, (Z)-6-fluoro-3-((2-methyl-H-imidazol-5-yl)methylene)-5-(8-methyl-2,3-dihydro-1H-pyrido[2,3-b][1,4]oxazin-7-yl)indolin-2-one], for which the pIC50 is 9.74.

For `CCN(CC)CCNC(=O)c1c(C)[nH]c(/C=C2\C(=O)Nc3c(F)cc(-c4cnc5c(c4C)NCCO5)cc32)c1C` [Compound C9, (Z)—N-(2-(diethylamino)ethyl)-5-((7-fluoro-5-(8-methyl-2,3-dihydro-1H-pyrido[2,3-b][1,4]oxazin-7-yl)-2-oxoindolin-3-ylidene)methyl)-2,4-dimethyl-1H-pyrrole-3-carboxamide], the pIC50 was 10.05.

For `Cc1ncc(/C=C2\C(=O)Nc3c(F)cc(-c4cnc5c(c4C)NCCO5)cc32)[nH]1` [Compound C10, (Z)-7-fluoro-3-((2-methyl-1H-imidazol-5-yl)methylene)-5-(8-methyl-2,3-dihydro-1H-pyrido[2,3-b][1,4]oxazin-7-yl)indolin-2-one], the pIC50 was 9.66.

Take `C/C(=C1/C(=O)Nc2ccc(-c3cnc4c(c3C)NCCO4)cc21)c1cnc[nH]1` [Compound C11, (Z)-3-(1-(1H-imidazol-5-yl)ethylidene)-5-(8-methyl-2,3-dihydro-1H-pyrido[2,3-b][1,4]oxazin-7-yl)indolin-2-one]: the pIC50 was 9.36.

With `Cc1c(-c2cc(F)c3c(c2C)/C(=C/c2cc(C#N)c[nH]2)C(=O)N3)cnc2c1NCCO2` [Compound C12, (Z)-5-((7-fluoro-4-methyl-5-(8-methyl-2,3-dihydro-1H-pyrido[2,3-b][1,4]oxazin-7-yl)-2-oxoindolin-3-ylidene)methyl)-1H-pyrrole-3-carbonitrile], the pIC50 was 9.17.

Take `Cc1c[nH]c(/C=C2\C(=O)Nc3c(F)cc(-c4cnc5c(c4C)NCCO5)c(C)c32)c1` [Compound C13, (Z)-7-fluoro-4-methyl-3-((4-methyl-H-pyrrol-2-yl)methylene)-5-(8-methyl-2,3-dihydro-1H-pyrido[2,3-b][1,4]oxazin-7-yl)indolin-2-one]: the pIC50 was 9.29.

In the case of `Cc1c(-c2cc(F)c3c(c2C)/C(=C/c2ccc[nH]2)C(=O)N3)cnc2c1NCCO2` [Compound C14, (Z)-3-((1H-pyrrol-2-yl)methylene)-7-fluoro-4-methyl-5-(8-methyl-2,3-dihydro-1H-pyrido[2,3-b][1,4]oxazin-7-yl)indolin-2-one], the pIC50 is 9.54.

For the molecule `Cc1ncc(/C=C2\C(=O)Nc3ccc(-c4cnc5c(c4C)NCCO5)cc32)[nH]1` [Compound C15, (Z)-3-((2-methyl-H-imidazol-5-yl)methylene)-5-(8-methyl-2,3-dihydro-1H-pyrido[2,3-b][1,4]oxazin-7-yl)indolin-2-one], the pIC50 was 10.15.

Regarding `CCN(CC)CCNC(=O)c1c(C)[nH]c(/C=C2\C(=O)Nc3ccc(-c4cnc5c(c4C)NCCO5)cc32)c1C` [Compound C16, (Z)—N-(2-(diethylamino)ethyl)-2,4-dimethyl-5-((5-(8-methyl-2,3-dihydro-1H-pyrido[2,3-b][1,4]oxazin-7-yl)-2-oxoindolin-3-ylidene)methyl)-1H-pyrrole-3-carboxamide], the pIC50 was 10.30.

Regarding `Cc1ccc(/C=C2\C(=O)Nc3ccc(-c4cnc5c(c4C)NCCO5)cc32)[nH]1` [Compound C17, (Z)-3-((5-methyl-H-pyrrol-2-yl)methylene)-5-(8-methyl-2,3-dihydro-1H-pyrido[2,3-b][1,4]oxazin-7-yl)indolin-2-one], the pIC50 was 10.30.

For the molecule `Cc1c(-c2ccc3c(c2)/C(=C/c2ccns2)C(=O)N3)cnc2c1NCCO2` [Compound C18, (Z)-3-(isothiazol-5-ylmethylene)-5-(8-methyl-2,3-dihydro-1H-pyrido[2,3-b][1,4]oxazin-7-yl)indolin-2-one], the pIC50 was 8.52.

For the molecule `Cc1c(-c2ccc3c(c2)/C(=C/c2cc(Br)c[nH]2)C(=O)N3)cnc2c1NCCO2` [Compound C20, (Z)-3-((4-bromo-1H-pyrrol-2-yl)methylene)-5-(8-methyl-2,3-dihydro-1H-pyrido[2,3-b][1,4]oxazin-7-yl)indolin-2-one], the pIC50 was 9.80.

As for `Cc1c(-c2ccc3c(c2)/C(=C/c2cc(C#N)c[nH]2)C(=O)N3)cnc2c1NCCO2` [Compound C21, (Z)-5-((5-(8-methyl-2,3-dihydro-1H-pyrido[2,3-b][1,4]oxazin-7-yl)-2-oxoindolin-3-ylidene)methyl)-1H-pyrrole-3-carbonitrile], the pIC50 is 10.15.

(Values after patent US11453681B2, “Substituted eneoxindoles and uses thereof” (Gilead Sciences, Inc., priority 2019, dated 2022).)
